Five compounds from patent publication US20200095296A1, “USE OF PEPTIDES AS BIOMARKERS IN THE DIAGNOSIS, CONFIRMATION AND TREATMENT OF A NEUROLOGICAL DISORDER AND TCR AND/OR HLA IMMUNOPROFILING IN NEURODEGENERATIVE DISEASE” (THE TRUSTEES OF COLUMBIA UNIVERSITY IN THE CITY OF NEW YORK, priority 2017, published 2020) can be followed below.

Changes are numbered by the printed parent chain. Bounds are passed on as bounds.

The target of one assay is T1, DPB1*03:01 (Homo sapiens, UniProt P04440+P20036, A65V/A84D/A85E/E86D/F38Y/G113D/G114E/G40L/I94L/L37V/M105V/M116V/P115A/R125K/T199I).
T1 sequence (P20036 29-260): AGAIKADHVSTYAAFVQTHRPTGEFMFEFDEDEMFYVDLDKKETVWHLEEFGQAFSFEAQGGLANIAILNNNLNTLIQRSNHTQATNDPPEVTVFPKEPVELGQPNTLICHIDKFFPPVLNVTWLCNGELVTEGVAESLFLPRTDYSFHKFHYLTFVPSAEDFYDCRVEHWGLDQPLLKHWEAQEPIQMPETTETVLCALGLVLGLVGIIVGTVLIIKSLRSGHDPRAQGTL
T1 sequence (P04440 30-258 L37V/F38Y/G40L/A65V/A84D/A85E/E86D/I94L/M105V/G113D/G114E/P115A/M116V/R125K/T199I): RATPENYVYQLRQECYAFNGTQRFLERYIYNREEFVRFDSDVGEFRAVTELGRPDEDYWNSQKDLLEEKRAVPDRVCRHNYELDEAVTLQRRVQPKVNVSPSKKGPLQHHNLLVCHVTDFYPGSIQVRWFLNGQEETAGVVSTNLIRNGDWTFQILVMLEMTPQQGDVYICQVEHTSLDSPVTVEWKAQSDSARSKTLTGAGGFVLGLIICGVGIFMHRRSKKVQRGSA
The experiment in a line: competition binding assay, purified HLA DPB1*03:01. Conditions: purified HLA, radiolabeled peptide competition; nM; read-out: binding to DPB1*03:01 (IC50).

Another assay addresses T2, DPB1*02:01 (Homo sapiens, UniProt P04440+P20036, A65V/A84D/A85E/K98E).
T2 sequence (P20036 29-260): T1 sequence (P20036 29-260)
T2 sequence (P04440 30-258 A65V/A84D/A85E/K98E): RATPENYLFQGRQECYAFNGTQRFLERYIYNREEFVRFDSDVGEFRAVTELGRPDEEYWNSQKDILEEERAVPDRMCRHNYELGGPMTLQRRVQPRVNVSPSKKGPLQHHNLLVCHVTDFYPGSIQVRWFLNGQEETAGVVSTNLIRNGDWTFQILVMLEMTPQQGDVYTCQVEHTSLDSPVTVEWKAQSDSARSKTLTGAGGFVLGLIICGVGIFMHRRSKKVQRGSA
The experiment in a line: competition binding assay, purified HLA DPB1*02:01. Conditions: purified HLA, radiolabeled peptide competition; nM; read-out: binding to DPB1*02:01 (IC50).

The next assay addresses T3, DPB1*04:01 (Homo sapiens, UniProt P04440).
T3 sequence (P04440 30-258): T2 sequence (P04440 30-258 A65V/A84D/A85E/K98E) with V36A, D55A, E56A, E69K
T3 sequence (P20036 29-260 partner): T1 sequence (P20036 29-260)
The experiment in a line: competition binding assay, purified HLA DPB1*04:01. Conditions: purified HLA, radiolabeled peptide competition; nM; read-out: binding to DPB1*04:01 (IC50).

The target in a further assay is T4, DPB1*05:01 (Homo sapiens, UniProt P04440+P20036, A65V/A84E/F191V/F64L/G113D/G114E/K142R/L158P/M116V/M62Q/P115A/Q81R/R125K/T114A/T199I/T259P/V234M).
T4 sequence (P20036 29-260 M62Q/Q81R/T114A/K142R/L158P/F191V/T259P): T1 sequence (P20036 29-260) with M34Q, Q53R, T86A, K114R, L130P, F163V, T231P
T4 sequence (P04440 30-258 F64L/A65V/A84E/G113D/G114E/P115A/M116V/R125K/T199I/V234M): T1 sequence (P04440 30-258 L37V/F38Y/G40L/A65V/A84D/A85E/E86D/I94L/M105V/G113D/G114E/P115A/M116V/R125K/T199I) with V8L, Y9F, L11G, F35L, D55E, E56A, D57E, L65I, V76M, V205M
The experiment in a line: competition binding assay, purified HLA DPB1*05:01. As to conditions: purified HLA, radiolabeled peptide competition; nM; read-out: binding to DPB1*05:01 (IC50).

The target in a further assay is T5, DPB1*04:02 (Homo sapiens, UniProt P04440+P20036, A65V/A84D/A85E/L207M).
T5 sequence (P04440 30-258 A65V/A84D/A85E/L207M): T2 sequence (P04440 30-258 A65V/A84D/A85E/K98E) with E69K, L178M
T5 sequence (P20036 29-260): T1 sequence (P20036 29-260)
The experiment in a line: competition binding assay, purified HLA DPB1*04:02. As to conditions: purified HLA, radiolabeled peptide competition; nM; read-out: binding to DPB1*04:02 (IC50).

The target in another assay is DRB5*01:01 (Homo sapiens, UniProt P01903+Q30154). In words: competition binding assay, purified HLA DRB5*01:01. As to conditions: purified HLA, radiolabeled peptide competition; nM; read-out: binding to DRB5*01:01 (IC50).
Another assay deals with DRB4*01:01 (Homo sapiens, UniProt P01903+P13762, G164S). The experiment in a line: competition binding assay, purified HLA DRB4*01:01. Conditions: purified HLA, radiolabeled peptide competition; nM; read-out: binding to DRB4*01:01 (IC50).
The next assay concerns PBMC. In words: IFNγ and IL-5 dual ELISPOT after 14 days culture of PBMC with α-syn peptide pools. The assay is classed as cell-based, human. As to conditions: IFNγ and IL-5 ELISPOT. Here is the method:
To determine whether α-syn derived peptides were recognized by T cells, responses were assayed to pools that each contained ˜twenty 9-10aa peptides predicted to bind common HLA class I types 15, and 15aa peptides spanning the protein that could elicit HLA class II responses. PBMCs from PD and HC were stimulated for 14 days, and IFNγ and IL-5 responses were measured by dual color ELISPOT, enabling quantification of responsive cells. Positive pools were deconvoluted to identify the peptides eliciting cytokine responses. IFNγ was used as a representative cytokine to detect CD8+/HLA class I and CD4+ Th1/Class II T cells, and IL-5 as a representative cytokine secreted by CD4+ Th2/Class II T cells. […] No cells producing both IL-5 and IFNγ were detected. […]
After 14 days of culture with individual peptide pools (5 μg/ml), the response to pools and individual peptides (5 μg/ml) was measured by IFNγ and IL-5 dual ELISPOT 37. […]
To determine whether α-syn-derived peptides were recognized by T cells, responses to pools that each contained approximately twenty peptides of 9-10 amino acids (a.a.) predicted to bind common HLA class I types, (Vita, R. et al. The immune epitope database (IEDB) 3.0. Nucleic Acids Res. 43, D405-D412 (2015)) and peptides of 15 amino acids spanning the protein that could elicit HLA class II responses were assayed. […] No cells producing both IL-5 and IFNγ were detected. […]

The target of another assay is HLA A*11:01 (Homo sapiens, UniProt P04439, A114D/D185E/E176A/F33Y/L180Q/S129P/T187R). In words: competition binding assay, purified HLA A*11:01 molecules. As to conditions: in vitro.

What is called IC50 is the concentration at which inhibition is half-maximal. Take `CSCC[C@H](NC(=O)[C@H](CCC(=O)O)NC(=O)[C@H](Cc1ccc(O)cc1)NC(=O)[C@H](C)NC(=O)[C@H](CCC(=O)O)NC(=O)[C@H](CC(N)=O)NC(=O)[C@H](CC(=O)O)NC(=O)[C@@H]1CCCN1C(=O)[C@H](CC(=O)O)NC(=O)[C@@H](NC(=O)[C@@H]1CCCN1C(=O)[C@@H](N)CCSC)C(C)C)C(=O)N1CCC[C@H]1C(=O)N[C@@H](CO)C(=O)N[C@@H](CCC(=O)O)C(=O)O`: the IC50 on DPB1*03:01, on DPB1*02:01, at DPB1*04:01, on DPB1*05:01 and at DPB1*04:02 was greater than 10000 nM each time.

With `CSCC[C@H](NC(=O)[C@H](CCC(=O)O)NC(=O)[C@H](Cc1ccc(O)cc1)NC(=O)[C@H](C)NC(=O)[C@H](CCC(=O)O)NC(=O)[C@H](CC(N)=O)NC(=O)[C@H](CC(=O)O)NC(=O)[C@@H]1CCCN1C(=O)[C@H](CC(=O)O)NC(=O)[C@@H](NC(=O)[C@@H]1CCCN1C(=O)[C@@H](N)CCSC)C(C)C)C(=O)N1CCC[C@H]1C(=O)N[C@@H](COP(=O)(O)O)C(=O)N[C@@H](CCC(=O)O)C(=O)O`, the half-inhibitory concentration (IC50) on DRB5*01:01, at DPB1*03:01, at DPB1*02:01, at DPB1*04:01, on DPB1*05:01 and on DRB4*01:01 was greater than 10000 nM throughout. For the same compound, the IC50 on DPB1*04:02 is greater than 10000 nM.

Regarding “GKTKEGVLYVGSKTK [α-syn 15 mer aa31-45, Y39 region]”, the cytokine response elicited entry is “apparent Class II restricted IL-5 and IFNγ response” in the assay with PBMC; “apparent class II restricted IL-5 and IFNy response” with PBMC (listed as GKEGVLYVGSKTK).

GVLYVGSKTK [α-syn 10 mer aa36-45]: the “binding to purified HLA A*11:01 molecules (IC50)” value at HLA A*11:01 is given as “bound poorly”.

On to VLYVGSKTKK [10 mer aa37-46], for which the “binding to purified HLA A*11:01 molecules (IC50)” value at HLA A*11:01 was “bound poorly”.
